Experimental data as given in US20250115582A1, “MOLECULAR GLUE DEGRADERS AND METHODS OF USING THE SAME” (Monte Rosa Therapeutics, Inc., priority 2022, published 2025).

What was measured:
LS180 = test: GI50 growth inhibition, CyQUANT, LS180; assay type: cell-based; details: Homo sapiens, LS180 cells, 120 to 168 hours
Experimental: (§1) SKCO1, LS180, and LS174T cell lines were purchased from ATCC. CW2 cell line was purchased from Riken. GP2D cell line was purchased from Sigma/ECACC. All cell lines were cultured in manufacturer's recommended media at 37° C., 5% CO2. Briefly, cells were suspended in 200 μL of media and seeded at 300 to 1,800 cells per well in tissue culture treated 96-well plates with black walls and clear bottom. Plates were incubated overnight and initial (T0) read was performed the following day using CyQUANT Direct Cell Proliferation Assay Kit (Thermo Fisher Scientific) according to manufacturer's protocol. All compounds were solubilized in DMSO and prepared at 3-fold serial dilution, using 9 points starting at 30 μM as highest concentration, administered to cells and incubated for 120 to 168 hours, at which point CyQUANT assay measurement was performed using Acumen Cellista instrument (Ex/Em 480/520 nm). Media-only wells were used as blank, and 0.3% DMSO was used as DMSO-treated cell control. Growth inhibition (percent response) was calculated using the following formula in Excel: “=if ([Compound treated Day N]>[Untreated Day 0, AVG], ([Compound treated Day N]−[Untreated Day 0, AVG])/([Untreated Day N]−[Untreated Day 0, AVG])*100, ([Compound Treated Day N]−[Untreated Day 0, AVG])/([Untreated Day 0, AVG])*100)”. GI50 is the response corresponding to the 50% of untreated control.
(§2) GI50 data are reported in Tables 4a, 4b, 4c, 4d, and 4e for compounds in Table 1. In Tables 4a, 4b, 4c, 4d, and 4e below, According to the code, A represents a GI50 value of ≤0.1 μM, B represents a GI50 value>0.1 μM and ≤1 μM, C represents an GI50 value>1 μM.

CW2 = test: GI50 growth inhibition, CyQUANT, CW2; assay type: cell-based; details: Homo sapiens, CW-2, CW2 cells, 120 to 168 hours
Experimental: as §1, §2

SKCO1 = test: GI50 growth inhibition, CyQUANT, SKCO1; assay type: cell-based; details: Homo sapiens, SK-CO-1, SKCO1 cells, 120 to 168 hours
Experimental: as §1, §2

CRBN/DDB1 = CRBN/DDB1 (Homo sapiens, UniProt Q96SW2); test: HTRF binding assay (thalidomide probe displacement from CRBN/DDB1); details: CRBN/DDB1 2.5 nM, Cy5-Thalidomide 100 nM, 30 min; geometric mean; read-out: HTRF_Thali_Disp_DR—geo_IC50
Chain of CRBN/DDB1 (Q96SW2 whole entry): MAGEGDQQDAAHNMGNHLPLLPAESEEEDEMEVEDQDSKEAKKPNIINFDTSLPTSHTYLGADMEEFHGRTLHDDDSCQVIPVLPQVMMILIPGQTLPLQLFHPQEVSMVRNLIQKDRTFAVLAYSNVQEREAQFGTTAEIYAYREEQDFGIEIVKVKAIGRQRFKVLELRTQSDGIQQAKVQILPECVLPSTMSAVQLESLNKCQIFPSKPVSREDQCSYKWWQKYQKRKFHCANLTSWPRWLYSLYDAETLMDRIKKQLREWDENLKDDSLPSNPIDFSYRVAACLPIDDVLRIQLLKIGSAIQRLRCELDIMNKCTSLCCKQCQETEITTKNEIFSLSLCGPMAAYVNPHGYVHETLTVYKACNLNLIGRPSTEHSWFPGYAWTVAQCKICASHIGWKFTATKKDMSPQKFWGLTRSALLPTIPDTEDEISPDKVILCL
Chain of CRBN/DDB1 (Q16531 whole entry partner): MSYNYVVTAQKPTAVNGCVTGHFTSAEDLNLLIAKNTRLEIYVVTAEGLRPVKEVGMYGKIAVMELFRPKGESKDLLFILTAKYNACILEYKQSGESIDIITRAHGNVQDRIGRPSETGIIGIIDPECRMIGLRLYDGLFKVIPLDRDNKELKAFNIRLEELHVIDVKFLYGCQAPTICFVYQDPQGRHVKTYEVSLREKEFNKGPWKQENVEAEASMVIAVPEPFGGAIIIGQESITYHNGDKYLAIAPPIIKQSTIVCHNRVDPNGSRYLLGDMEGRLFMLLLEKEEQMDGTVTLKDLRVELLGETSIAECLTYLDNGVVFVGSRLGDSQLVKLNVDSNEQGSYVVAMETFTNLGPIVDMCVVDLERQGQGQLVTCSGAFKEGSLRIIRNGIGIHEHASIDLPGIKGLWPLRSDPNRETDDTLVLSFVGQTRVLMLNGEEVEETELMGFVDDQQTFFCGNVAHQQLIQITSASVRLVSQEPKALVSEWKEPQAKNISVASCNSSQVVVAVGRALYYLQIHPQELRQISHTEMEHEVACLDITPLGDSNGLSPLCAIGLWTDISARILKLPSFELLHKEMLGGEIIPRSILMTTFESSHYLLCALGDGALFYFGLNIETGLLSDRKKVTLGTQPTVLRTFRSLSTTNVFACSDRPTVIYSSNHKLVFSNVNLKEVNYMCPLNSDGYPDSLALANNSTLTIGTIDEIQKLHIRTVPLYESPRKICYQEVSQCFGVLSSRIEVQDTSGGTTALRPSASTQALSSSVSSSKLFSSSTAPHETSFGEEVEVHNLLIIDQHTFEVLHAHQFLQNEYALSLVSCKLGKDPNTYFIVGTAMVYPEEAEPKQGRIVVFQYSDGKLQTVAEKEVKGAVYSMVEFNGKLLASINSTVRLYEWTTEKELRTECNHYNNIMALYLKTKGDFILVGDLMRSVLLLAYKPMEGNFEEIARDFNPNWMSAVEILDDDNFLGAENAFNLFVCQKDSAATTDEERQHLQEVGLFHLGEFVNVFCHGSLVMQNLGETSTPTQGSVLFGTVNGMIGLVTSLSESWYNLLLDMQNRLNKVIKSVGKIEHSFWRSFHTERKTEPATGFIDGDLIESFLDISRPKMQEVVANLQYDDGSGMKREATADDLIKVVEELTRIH
Description: Binding of test compounds to CRBN/DDB1 was monitored in an HTRF assay using 1-[5-({2-[2-(2-{[2-(2,6-dioxopiperidin-3-yl)-1,3-dioxo-2,3-dihydro-1H-isoindol-4-yl]oxy}acetamido)ethoxy]ethyl}carbamoyl)pentyl]-3,3-dimethyl-2-[(1E,3E)-5-[(2E)-1,3,3-trimethyl-5-sulfo-2,3-dihydro-1H-indol-2-ylidene]penta-1,3-dien-1-yl]-3H-indol-1-ium-5-sulfonate as a fluorescent probe. In this assay, compounds displace the fluorescently labeled thalidomide-based probe bound to CRBN and fluorescence is monitored with increasing compound concentration. Assays were conducted in Greiner white 384 well HiBase plates (Cat. No 784075-25) in 10 μL total volume. A one pot detection solution of CRBN/DDB1 (2.5 nM), anti-His Terbium Cryptate Gold (1×, PerkinElmer Cat. #: 61HI2TLB), and Cy5-Thalidomide (100 nM, Tenova Cat.: T52461) was prepared in 20 mM HEPES, 20 mM NaCl, 0.2 mM TCEP, 0.2 mM EDTA, and 0.005% Tween20 was dispensed to each assay plate. Test compounds were stored in dry, ambient temperatures at 10 mM. A 10-point, 1:3 dilution series was prepared from 10 mM stock concentrations in Echo-compatible LDV plates. 10 nL of each compound dilution series was dispensed into assays wells using an Echo 650 (Labcyte inc. USA). 10 nL of 10 mM lenalidomide (Selleckchem Cat no. S1029) was transferred into the active-control wells for the assay and 10 nL of DMSO was transferred into the negative control wells. The assay was then allowed to incubate for 30 min at ambient temperature after transferring the test compounds. Plate measurements were taken on a Pherastar FSX (BMG Labtech, Germany) using the HTRF Red filter (Ex. 337 nm, eml: 620 nm, em2: 665 nm) (Flashes: 50, Integration time: 60-400 μs, Z-height: 10 mm, Ratio-multiplier: 10,000). Analysis, HTRF ratio and IC50 values were derived using KNIME analytics (KNIME Zurich) transformation and fitting within Collaborative Drug Discovery (Collaborative Drug Discovery USA) using a 4-parameter logistic fit. HTRF ratio calculation was performed using the following formula: […]
where em665nm represents the measured emission at 665 nm upon excitation at 337 nm and em620nm the measured emission at 620 nm upon excitation at 337 nm. The 4 parameter logistic fitting model was performed using the following formula: […]
where Y represents the HTRF ratio response (as defined previously), X the compound concentration in μM, Ymin the minimum response plateau, Ymax the maximum response plateau, IC50 the concentration of agonist that gives a response half way between Ymin and Ymax and HillSlope the steepness of the family of curves. No fitting model constraints was applied on Ymin, or Ymax whilst IC50>0 and −0.5>HillSlope>−3
Ki values were derived from the geometric mean of the IC50 values using the Cheng-Prusoff transformation:
where [L] represents the concentration of fluorescent probe in μM, Kd the affinity (binding constant) of the fluorescent probe in units of μM and IC50 the concentration of agonist that gives a response halfway between Ymin and Ymax (as described in 1.2.1)
Analysis and IC50 values were derived using KNIME analytics (KNIME, Zurich) transformation and fitting within Collaborative Drug Discovery (Collaborative Drug Discovery, USA) as described in 1.2.1. Ki values were derived from the geometric mean of the IC50 values using the Cheng-Prusoff transformation as described in 2.2.2. Data was visualized in GraphPad Prism 8.1.2 (GraphPad, USA) and reported as mean and standard deviation. Microsoft Office Excel 2012 (Redmond, WA) was used for calculation of mean and standard deviation.
IC50 data are reported in Table 3 for compounds in Table 1. In Table 3 below, According to the code, A represents a IC50 value of ≤0.1 μM, B represents a IC50 value≥0.1 μM and ≤1 μM, C represents an IC50 value>1 μM.

CK1α = molecular target: T1, CK1α (Homo sapiens, UniProt P48729+Q96SW2); test: CK1α NanoBiT assay (HiBiT-tagged CSNK1A1 in HEK293 clonal line); assay type: cell-based; details: HEK293 HiBiT-CSNK1A1/LgBiT cells, 24 h incubation, luminescence
T1 construct: HEK293 clonal line with CRISPR KI HiBiT tag on CSNK1A1; host or cells: HEK293 clonal line, CRISPR HiBiT knock-in at CSNK1A1, stably expressing LgBiT
T1 sequence (P48729 whole entry): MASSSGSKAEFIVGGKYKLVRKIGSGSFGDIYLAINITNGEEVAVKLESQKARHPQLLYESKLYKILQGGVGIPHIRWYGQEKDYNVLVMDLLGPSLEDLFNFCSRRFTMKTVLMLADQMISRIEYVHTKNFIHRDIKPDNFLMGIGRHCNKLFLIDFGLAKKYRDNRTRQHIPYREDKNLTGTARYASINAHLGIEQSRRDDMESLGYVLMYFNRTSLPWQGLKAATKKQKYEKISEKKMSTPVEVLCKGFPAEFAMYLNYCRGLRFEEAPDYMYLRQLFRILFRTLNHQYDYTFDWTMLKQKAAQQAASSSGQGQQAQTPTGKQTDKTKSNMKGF
T1 sequence (Q96SW2 whole entry): as the sequence (Q96SW2 whole entry) above
T1 sequence (Q16531 2-1140 partner limits assumed): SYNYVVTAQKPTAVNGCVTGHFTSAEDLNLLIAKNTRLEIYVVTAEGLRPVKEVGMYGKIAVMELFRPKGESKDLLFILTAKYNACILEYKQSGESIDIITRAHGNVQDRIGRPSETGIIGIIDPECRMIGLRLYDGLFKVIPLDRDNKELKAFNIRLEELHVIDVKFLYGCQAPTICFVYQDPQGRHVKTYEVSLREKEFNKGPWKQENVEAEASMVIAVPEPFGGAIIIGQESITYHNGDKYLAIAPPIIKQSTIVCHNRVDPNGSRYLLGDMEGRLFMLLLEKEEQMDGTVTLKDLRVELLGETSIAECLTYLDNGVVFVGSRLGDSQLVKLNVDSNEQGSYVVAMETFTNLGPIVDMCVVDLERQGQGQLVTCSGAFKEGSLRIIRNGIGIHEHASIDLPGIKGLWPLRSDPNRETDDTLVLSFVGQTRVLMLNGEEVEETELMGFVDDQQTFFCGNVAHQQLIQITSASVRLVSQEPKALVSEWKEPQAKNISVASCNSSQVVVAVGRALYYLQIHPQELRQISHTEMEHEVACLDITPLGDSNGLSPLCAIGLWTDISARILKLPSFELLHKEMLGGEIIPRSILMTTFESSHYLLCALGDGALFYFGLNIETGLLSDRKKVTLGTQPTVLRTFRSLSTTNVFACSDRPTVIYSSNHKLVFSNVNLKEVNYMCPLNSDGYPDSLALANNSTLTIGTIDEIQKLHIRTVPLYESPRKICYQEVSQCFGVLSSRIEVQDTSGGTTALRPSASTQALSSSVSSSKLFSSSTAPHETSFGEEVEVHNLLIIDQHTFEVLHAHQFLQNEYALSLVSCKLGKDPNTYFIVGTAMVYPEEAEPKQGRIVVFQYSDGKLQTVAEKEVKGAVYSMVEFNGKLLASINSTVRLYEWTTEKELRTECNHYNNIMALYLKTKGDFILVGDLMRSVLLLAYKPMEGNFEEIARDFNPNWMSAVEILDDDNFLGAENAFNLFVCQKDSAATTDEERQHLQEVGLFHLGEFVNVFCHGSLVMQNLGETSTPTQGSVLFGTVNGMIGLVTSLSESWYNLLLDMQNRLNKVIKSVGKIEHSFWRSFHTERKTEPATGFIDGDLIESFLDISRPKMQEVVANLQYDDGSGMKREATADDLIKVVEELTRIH
Experimental: HEK293 clonal line with CRISPR KI HiBiT tag on CSNK1A1 and stably expressing LgBiT protein was obtained from Promega (Madison, WI). Cells were plated at 5000 cells per well using Multiflo (BioTek) in 384-well white solid bottom plates (Corning, 3570BC) in […] volume in DMEM media (DMEM, high glucose, HEPES, no phenol red (ThermoFisher Scientific, 21063029)) containing 10% FBS (Corning, 35-075-CV), 1% Penicillin/Streptomycin ((ThermoFisher Scientific, 15140-122), and 0.2% Endurazine (Nano-Glo Endurazine Live Cell Substrate (Promega, N2571)). Cells were incubated for 16 hours at 37C, 5% CO2. Depending on experiment 25 or 75 nL of a compound at 10 mM were added into the plate using an Echo®650 liquid handler (Labcyte) to achieve final concentration of […] in wells. Cells were incubated at 37° C., 5% CO2 for 24 hours followed by signal was read on Pherastar FSX using “LUM plus” optic module.
Data analysis was performed using Scinamic (Scinamic, Cambridge, MA).
Luminescence response (R) was calculated by the formula: response=100*(S−N)/(P−N), where S is the signal of the well, N and P the mean negative and positive control values, respectively, of the same plate. The luminescence response was then fitted in Scinamic using a 3-parameter agonist logistic fit (hillslope=1, EC50>0, top/bottom unconstrained).
DC50 data are reported in Table 2 for compounds in Table 1. In Table 2 below, According to the code, A represents a DC50 value of ≤0.1 μM, B represents a DC50 value>0.1 μM and ≤1 μM, C represents an DC50 value>1 μM.

LS174T = test: GI50 growth inhibition, CyQUANT, LS174T; assay type: cell-based; details: Homo sapiens, LS174T cells, 120 to 168 hours
Experimental: as §1, §2

GP2D = test: GI50 growth inhibition, CyQUANT, GP2D; assay type: cell-based; details: GP2D cells, 120 to 168 hours
Experimental: as §1, §2

GI50 (SKCO1) [nM] | IC50 (CRBN/DDB1) [nM] | DC50 (CK1α) [µM] | Compound | GI50 (LS180) [nM] | GI50 (CW2) [nM] | GI50 (LS174T) [nM] | GI50 (GP2D) [nM]
– | 100 to 1000 | 0.1 to 1 | Cc1cc(CC(=O)Nc2ccc3c(c2)CN(C2CCC(=O)NC2=O)C3=O)ccc1Cl (stereo not drawn) [Compound 144, 2-(4-chloro-3-methylphenyl)-N-(2-(2,6-dioxopiperidin-3-yl)-1-oxoisoindolin-5-yl)acetamide] | – | – | – | –
– | 100 to 1000 | < 0.1 | O=C1CCC(N2Cc3cc(NC(=O)c4ccccc4Cl)ccc3C2=O)C(=O)N1 (stereo not drawn) [Compound 148] | – | – | – | –
– | ≤ 100 | < 0.1 | Cc1nc(C(=O)Nc2ccc3c(c2)CN(C2CCC(=O)NC2=O)C3=O)cn1-c1ccccc1 (stereo not drawn) [Compound 155, N-(2-(2,6-dioxopiperidin-3-yl)-1-oxoisoindolin-5-yl)-2-methyl-1-phenyl-1H-imidazole-4-carboxamide] | – | – | – | –
– | 100 to 1000 | < 0.1 | Cc1c(C(=O)Nc2ccc3c(c2)CN(C2CCC(=O)NC2=O)C3=O)ncn1-c1ccccc1 (stereo not drawn) [Compound 158, N-(2-(2,6-dioxopiperidin-3-yl)-1-oxoisoindolin-5-yl)-5-methyl-1-phenyl-1H-imidazole-4-carboxamide] | – | – | – | –

The remaining lines, values behind:

Compound | GI50 (SKCO1) [nM] | IC50 (CRBN/DDB1) [nM] | DC50 (CK1α) [µM] | GI50 (LS180) [nM] | GI50 (CW2) [nM] | GI50 (LS174T) [nM] | GI50 (GP2D) [nM]
O=C1CCC(N2Cc3cc(NC(=O)c4cn(-c5ccccc5)cn4)ccc3C2=O)C(=O)N1 (stereo not drawn) [Compound 109, N-(2-(2,6-dioxopiperidin-3-yl)-1-oxoisoindolin-5-yl)-1-phenyl-1H-imidazole-4-carboxamide] | < 100 | 100 to 1000 | < 0.1 | 100 to 1000 | < 100 | < 100 | < 100
O=C1CCC(N2Cc3cc(NC(=O)c4cn(-c5ccccc5)c(C(F)(F)F)n4)ccc3C2=O)C(=O)N1 (stereo not drawn) [Compound 156, N-(2-(2,6-dioxopiperidin-3-yl)-1-oxoisoindolin-5-yl)-1-phenyl-2-(trifluoromethyl)-1H-imidazole-4-carboxamide] | – | 100 to 1000 | < 0.1 | – | – | – | –
COCc1nc(C(=O)Nc2ccc3c(c2)CN(C2CCC(=O)NC2=O)C3=O)cn1-c1ccccc1 (stereo not drawn) [Compound 157, N-(2-(2,6-dioxopiperidin-3-yl)-1-oxoisoindolin-5-yl)-2-(methoxymethyl)-1-phenyl-1H-imidazole-4-carboxamide] | – | ≤ 100 | < 0.1 | – | – | – | –
COCc1c(C(=O)Nc2ccc3c(c2)CN(C2CCC(=O)NC2=O)C3=O)ncn1-c1ccccc1 (stereo not drawn) [Compound 159, N-(2-(2,6-dioxopiperidin-3-yl)-1-oxoisoindolin-5-yl)-5-(methoxymethyl)-1-phenyl-1H-imidazole-4-carboxamide] | – | 100 to 1000 | 0.1 to 1 | – | – | – | –
